The values that follow come from patent publication US20250099420A1, “SMALL MOLECULE MODULATORS OF GPR139 COMPLEX” (University of Florida Research Foundation, Incorporated, priority 2022, published 2025).

For one data set, the system named is parental HEK cells. The data set is described as follows: HEK parental Antagonist Counterscreen Assay (non-transfected cells, acetylcholine control). The data set is classed as cell-based. Particulars: for EC50: Homo sapiens, HEK293, acetylcholine as control, scientific notation, molarity. For orientation: The purpose of a counterscreen is to sort out artefacts and off-target activity.

Data set [1] addresses T1, GPR139 (Homo sapiens, UniProt Q6DWJ6).
T1 sequence (Q6DWJ6 1-353): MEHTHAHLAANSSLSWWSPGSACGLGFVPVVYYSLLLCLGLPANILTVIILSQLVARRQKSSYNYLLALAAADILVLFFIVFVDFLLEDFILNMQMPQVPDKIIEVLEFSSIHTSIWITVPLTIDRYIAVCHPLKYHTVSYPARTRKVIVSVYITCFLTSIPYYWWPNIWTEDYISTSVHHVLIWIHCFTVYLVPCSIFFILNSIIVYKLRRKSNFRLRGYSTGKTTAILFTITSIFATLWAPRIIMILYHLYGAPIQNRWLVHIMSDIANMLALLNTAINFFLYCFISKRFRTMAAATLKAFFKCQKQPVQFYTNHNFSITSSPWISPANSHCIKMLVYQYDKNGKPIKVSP
The data set is described as follows: GPR139 Agonist titration / agonist counterscreen assay (calcium detection, HEK-GPR139 cells). In kind it is cell-based. Set-up: expressed in transfected cells; host or cells: HEK Aequorin cells, Maxcyte transient transfection. Particulars: agonist counterscreen of the antagonists; for EC50: scientific notation, molarity, read-out: GRP139 Agonist activity EC50. As to the method: GPR activity was assessed using a calcium detection assay. […] Negative control samples were treated with DMSO. […] Intracellular calcium was measured using Calcium 5.

Data set [2] concerns the target T1, GPR139. The experiment in a line: GPR139 Antagonist titration assay (calcium detection, HEK-GPR139 cells, vs EC80 of S-JNJ-63533054). The note with it: for GPR139 Antagonist Activity Averaged Max % Response (±St. Dev.): activity relative to known control; for GPR139 Antagonist Activity Lipophilic Efficiency (logD): based on logD; for GPR139 Antagonist Activity Lipophilic Efficiency (logP): based on logP; for GPR139 Antagonist Activity Hill Slope: fitted dose-response curve.

Data set [3] concerns the target T1, GPR139. The experiment in a line: [3H]JNJ-63533054 radioligand competition binding assay on membranes of HEK293T/17 cells. Details: HA signal peptide (HASP) (N); expressed in transfected cells; host or cells: HEK293T/17 cells (membrane preparation). The note with it: for inhibition at 10 µM: 10 μM of the indicated compound, (10 μM) JNJ-63533054 as printed in title; for Ki: Ki=IC50/(1+C/Kd), membranes of HEK293T/17 cells expressing human GPR139, read-out: Ki ± SEM. The text has this: Eighteen compounds were selected for additional study. The compounds were re-synthesized and tested in radioligand binding competition assays for their ability to displace [^3H]-labeled reference agonist JNJ-63533054 on GPR139. The GPR139 construct used (pCDNA3.1-HASP-HA-GPR139) contained an N-terminal HA signal peptide (HASP), followed by an HA tag and human GPR139 (NM_001002911.4). HEK293T/17 cells were maintained in Dulbecco's modified Eagle's medium with 10% (v/v) fetal bovine serum, nonessential amino acids, and 1 mM sodium pyruvate.
Competition binding assay: Radioligand binding assay used human GPR139 expressed in HEK293T/17 cells. HEK293T/17 cells were transfected pCDNA3.1-HASP-HA-GPR139. 48 h after, cells were detached from plates by pipetting with PBS, centrifuged at 500×g for 5 min, and then the fluid was aspirated away. The cell pellets were frozen with liquid nitrogen and stored at −80° C. Pellets were homogenized in TE buffer (50 mM Tris-HCl, pH 7.4, 5 mM EDTA) and centrifuged at 1000×g at 4° C. for 5 min. Supernatant was collected and recentrifuged at 30,000×g at 4° C. for 30 min. The pellet was rehomogenized in TE buffer and incubated for 60 minutes at room temperature with eight concentrations of [^3H]JNJ-63533054 (specific activity 24.7 Ci/mmol) ranging from 0.024 nM to 400 nM. The binding reaction was terminated by filtration through GF/C filter (Waterman) followed by washes with cold TE buffer. Filters were dried in a hood overnight followed by the addition of scintillation fluid. Bound radioactivity was counted on a Hidex 600 liquid scintillation counter. […] Nonspecific binding was determined with 10 μM JNJ-63533054. The Kd values of the radioligands and IC50 of the antagonist were calculated by Graphpad Prism. Ki values were calculated as Ki=IC50/(1+C/Kd), where C is concentration of the radioligand.
Various concentrations of selected ligands were then added in the presence of 10 nM [^3H]-JNJ-63533054 and their ability to displace [^3H]labeling on cellular membranes was assessed. FIGS. 3B and 3C present representative data obtained in these experiments. […] The results of these experiments are presented in the Table 3 and confirm selective binding the compounds to GPR139 thereby validating their interaction with the intended target.
In general terms: Displacement assays read how much labelled ligand stays bound in the presence of the test substance.

Source text for parental HEK cells: C. […] The HEK parental counterscreen utilized the same cells but not transfected with the plasmid. The agonist and antagonist modes were run the same way as the primary screen but acetylcholine was used in place of GPR139 agonist as the control compound.
The HEK parental counterscreen utilized the same cells but not transfected with the plasmid. The antagonist modes assays utilized the cells being plated in the 1536 well plate overnight in growth media prior to dye loading in PDL coated plates and acetylcholine was used in place of GPR139 agonist as the control compound.
The HEK parental counterscreen utilized the same cells but not transfected with the plasmid. Acetylcholine was used in place of GPR139 agonist as the control compound. The cells were plated overnight, similar to the HEK antagonist counterscreen protocol.
The HEK parental counterscreens utilized the same cells but not transfected with the plasmid. Acetylcholine was used in place of GPR139 agonist as the control compound. The cells were plated overnight, similar to the HEK antagonist counterscreen protocol.
For each test compound, percent activation was plotted against compound concentration. A four parameter equation describing a sigmoidal dose-response curve was then fitted with adjustable baseline using Assay Explorer software (Symyx Technologies Inc.).

The term EC50 denotes the midpoint of the concentration-response curve. As a reminder, the inhibition is the change of the read-out against control, counted positive when it falls. A word on the Ki: it is the dissociation constant of the complex between target and ligand, obtained from inhibition or displacement. For the compound `CCN1C(=O)c2cccc3c(S(=O)(=O)Nc4cccc(F)c4)ccc1c23` [SR-01000110577], in the data set on parental HEK cells, the “HEK antagonist activity Averaged Max % Response (±St. Dev.)” value was determined as 24.57 ± 3.75% and the EC50 was over 14.1 µM. Further, at GPR139 [1], the “GRP139 Agonist activity Averaged Max % Response (±St. Dev.)” value is 5.61 ± 4.33% and the half-maximal effective concentration (EC50) was over 14.1 µM. On GPR139 [2], the EC50 is 6.9 µM, the “GPR139 Antagonist Activity Ligand Efficiency” value is given as 0.28, the “GPR139 Antagonist Activity Averaged Max % Response (±St. Dev.)” value worked out at 81.68 ± 2.49% and the “GPR139 Antagonist Activity Lipophilic Efficiency (logD)” value is 2.48. In addition, on GPR139 [2], the “GPR139 Antagonist Activity Lipophilic Efficiency (logP)” value stood at 2.23 and the “GPR139 Antagonist Activity Hill Slope” value turned out to be 0.62. Moreover, on GPR139 [3], the inhibition at 10 µM was -117 ± 2.89% and the Ki turned out to be 8.03 ± 0.18 µM.

For the compound `CC1CCCC(NC(=O)c2cccc(NS(=O)(=O)c3ccc(Br)cc3)c2)C1C` (stereo not drawn) [SR-01000594343], in the data set on parental HEK cells, the “HEK antagonist activity Averaged Max % Response (±St. Dev.)” value was 10.38 ± 17.91% and the EC50 was over 14.1 µM. In addition, at GPR139 [1], the “GRP139 Agonist activity Averaged Max % Response (±St. Dev.)” value came to 16.98 ± 6.81% and the EC50 was over 14.1 µM. For the same compound, at GPR139 [2], the EC50 amounted to 7.7 µM, the “GPR139 Antagonist Activity Ligand Efficiency” value was determined as 0.26, the “GPR139 Antagonist Activity Averaged Max % Response (±St. Dev.)” value is on record as 64.21 ± 3.85% and the “GPR139 Antagonist Activity Lipophilic Efficiency (logD)” value stood at 0.51. For the same compound, at GPR139 [2], the “GPR139 Antagonist Activity Lipophilic Efficiency (logP)” value was 0.36 and the “GPR139 Antagonist Activity Hill Slope” value was −1.40. In addition, on GPR139 [3], the inhibition at 10 µM was 87.2 ± 2.37% and the Ki was found to be 3.05 ± 0.07 µM.

In the case of `Cc1cc(I)ccc1NC(=O)CSc1cccs1` [SR-01000253143], in the data set on parental HEK cells, the “HEK antagonist activity Averaged Max % Response (±St. Dev.)” value is 22.82 ± 1.84% and the EC50 is over 14.1 µM. Also, at GPR139 [1], the “GRP139 Agonist activity Averaged Max % Response (±St. Dev.)” value is reported as 4.38 ± 3.28% and the EC50 is over 14.1 µM. On GPR139 [2], the EC50 was 4.3 µM, the “GPR139 Antagonist Activity Ligand Efficiency” value is recorded as 0.42, the “GPR139 Antagonist Activity Averaged Max % Response (±St. Dev.)” value is on record as 63.84 ± 2.29% and the “GPR139 Antagonist Activity Lipophilic Efficiency (logD)” value amounted to 0.78. Also, at GPR139 [2], the “GPR139 Antagonist Activity Lipophilic Efficiency (logP)” value is recorded as 0.78 and the “GPR139 Antagonist Activity Hill Slope” value was 0.87. Besides, at GPR139 [3], the inhibition at 10 µM came out at 54.3 ± 5.98% and the Ki is 0.13 ± 0.01 µM.

Consider `CCOC(=O)c1c(C)nc2c(c1-c1ccc(F)cc1)C(=O)CC(c1ccc(Cl)cc1)C2` (stereo not drawn) [SR-01000419112], for which, in the data set on parental HEK cells, the “HEK antagonist activity Averaged Max % Response (±St. Dev.)” value turned out to be 18.74 ± 4.66% and the EC50 is over 11.7 µM. In addition, on GPR139 [1], the “GRP139 Agonist activity Averaged Max % Response (±St. Dev.)” value was 0.45 ± 5.31% and the EC50 was over 11.7 µM. Further, at GPR139 [2], the EC50 was determined as 7.8 µM, the “GPR139 Antagonist Activity Ligand Efficiency” value was determined as 0.23, the “GPR139 Antagonist Activity Averaged Max % Response (±St. Dev.)” value worked out at 67.9 ± 10.41% and the “GPR139 Antagonist Activity Lipophilic Efficiency (logD)” value was 0.44. At GPR139 [2], the “GPR139 Antagonist Activity Lipophilic Efficiency (logP)” value stood at 0.44 and the “GPR139 Antagonist Activity Hill Slope” value was 1.28. Besides, on GPR139 [3], the inhibition at 10 µM worked out at 102 ± 4.88% and the Ki is 0.98 ± 0.02 µM.

For the compound `CCOC(=O)c1ccc2nc(C)c3c(c2c1)OC(C(C)(Cl)Br)C3` (stereo not drawn) [SR-01000220077], in the data set with parental HEK cells, the “HEK antagonist activity Averaged Max % Response (±St. Dev.)” value is listed as 5.29 ± 23.62% and the EC50 was over 14.1 µM. Also, at GPR139 [1], the “GRP139 Agonist activity Averaged Max % Response (±St. Dev.)” value is on record as 29.53 ± 3.67% and the EC50 was over 14.1 µM. Besides, at GPR139 [2], the EC50 came out at 4.7 µM, the “GPR139 Antagonist Activity Ligand Efficiency” value is 0.32, the “GPR139 Antagonist Activity Averaged Max % Response (±St. Dev.)” value is 82.15 ± 3.63% and the “GPR139 Antagonist Activity Lipophilic Efficiency (logD)” value turned out to be 1.23. Moreover, at GPR139 [2], the “GPR139 Antagonist Activity Lipophilic Efficiency (logP)” value was determined as 1.20 and the “GPR139 Antagonist Activity Hill Slope” value is 0.74. For the same compound, on GPR139 [3], the inhibition at 10 µM worked out at 77.8 ± 5% and the inhibition constant (Ki) is 7.31 ± 0.16 µM.
